How the values were obtained:
Type in all cases: functional, cell-based
BXPC-3 = assay: Antiproliferative activity against human BxPC3 cells assessed as viable cells after 48 hrs by MTT assay; settings: BXPC-3, 48 h
MCF7 = assay: Antiproliferative activity against human MCF7 cells assessed as viable cells after 48 hrs by MTT assay; settings: MCF7, 48 h
DU-145 = assay: Antiproliferative activity against human DU145 cells assessed as viable cells after 48 hrs by MTT assay; settings: DU-145, 48 h
NCI-H460 = assay: Antiproliferative activity against human NCI-H460 cells assessed as viable cells after 48 hrs by MTT assay; settings: NCI-H460, 48 h

| SMILES | IC50 (BXPC-3) | IC50 (MCF7) | IC50 (DU-145) | IC50 (NCI-H460) |
| --- | --- | --- | --- | --- |
| O=C1N[C@H]2[C@H](O)[C@H](O)[C@@H](O)[C@H](CO)[C@@H]2c2cc3c(cc21)OCO3 | 770 nM | 860 nM | 1100 nM | 400 nM |
| O=C1N[C@@H]2C(=C[C@H](O)[C@@H](O)[C@H]2O)c2cc3c(c(O)c21)OCO3 [NARCICLASINE] | 50 nM | 40 nM | 50 nM | 40 nM |

Results, then the compound that gave them:

| IC50 (BXPC-3) | IC50 (MCF7) | IC50 (DU-145) | IC50 (NCI-H460) | SMILES |
| --- | --- | --- | --- | --- |
| 340 nM | 1810 nM | 720 nM | 530 nM | CC(=O)OC[C@H]1[C@H](O)[C@@H](O)[C@@H](O)[C@@H]2NC(=O)c3cc4c(cc3[C@@H]12)OCO4 |
| 220 nM | 240 nM | 90 nM | 90 nM | O=C1N[C@H]2[C@H](O)[C@H](O)[C@@H](O)[C@H](CO)[C@@H]2c2cc3c(c(O)c21)OCO3 |
| 70 nM | 520 nM | 60 nM | 70 nM | CC(=O)OC[C@H]1[C@H](O)[C@@H](O)[C@@H](O)[C@@H]2NC(=O)c3c(cc4c(c3O)OCO4)[C@@H]12 |

— ChEMBL document CHEMBL1806351, “Synthesis of C-1 homologues of pancratistatin and their preliminary biological evaluation” (Bioorg Med Chem Lett, 2011)
